Test system: DRG neurons from postnatal day 5 rats
Test: Neurite outgrowth assay, DRG neurons with myelin-associated inhibitors
Assay type: cell-based, rat
Conditions: 24 hours
Procedure: FIG. 5. CK2 rescues postnatal rat neurones from inhibition of neurite outgrowth by the myelin-associated inhibitors, Nogo, MAG and OMgp. (A) DRG neurones from postnatal day 5 rats were cultured with or without the Nogo-66 fragment in the presence of the indicated reagents. After 24 hours from addition of the indicated reagents, cells were fixed and ã-tubulin III was detected by immunofluorescence. (B) The number of cells extending neurites of more than 20 μm and total ã-tubulin III positive cell number were counted from images taken in (A). The population of cells extending neurite-like structures of more than 20 μm was indicated as a percentage of total cell number. An average of three experiments is shown. Error bars indicate S. E. between experiments. Data were analysed with student's t test. […] (E) The number of cells extending neurites of more than 20 μm and total ã-tubulin III positive cell number were counted from images taken in (C and D). […] Cells were fixed and ã-tubulin III was detected by immunofluorescence. […] Over-expressed NgR1-Myc was detected by immunofluorescence. (H) The number of Myc-positive cells extending neurites of more than 20 μm and total Myc-positive cell number were counted from images taken in (G). […]

**Q.** How did the “neurite outgrowth in the presence of the Nogo-66 fragment” value turn out when `Nc1ncnc2c1ncn2[C@@H]1O[C@H](COP(=O)(O)OP(=O)(O)OP(=O)(O)O)[C@@H](O)[C@H]1O` [ATP] was run?
**A.** did not suppress

B1: BDNF: brain-derived neurotrophic factor, member of the neurotrophin nerve growth factor family, purchased from Merck (protein, UniProt P23560 19-247, looked up)
Neurotrophic factor BDNF …: APMKEANIRGQGGLAYPGVRTHGTLESVNGPKAGSRGLTSLADTFEHVIEELLDEDQKVRPNEENNKDADLYTSRVMLSSQVPLEPPLLFLLEEYKNYLDAANMSMRVRRHSDPARRGELSVCDSISEWVTAADKKTAVDMSGGTVTVLEKVPVSKGQLKQYFYETKCNPMGYTKEGCRGIDKRHWNSQCRTTQSYVRALTMDSKKRIGWRFIRIDTSCVCTLTIKRGR
**Q.** Which “neurite outgrowth in the presence of the Nogo-66 fragment” value does the source give for B1 here?
**A.** fails to block

— US9089565B2, “Compositions and methods for causing neurite outgrowth” (MEDICAL RESEARCH COUNCIL, priority 2009, dated 2015)
